Read-outs that look alike come from different tables or passages of the source.

These results are taken from paper PMC4713475, “In Vivo Differences between Two Optical Isomers of Radioiodinated o-iodo-trans-decalinvesamicol for Use as a Radioligand for the Vesicular Acetylcholine Transporter” (PLoS ONE, 2016).

Details of data set [1]: method as in PMID 24174343. Conditions: previous report; cited from earlier work.
The target of data set [2] is T1, VAChT (Rattus norvegicus, UniProt Q62666).
T1 construct: from tissue; host or cells: brain of live male Sprague-Dawley rats (in vivo)
T1 sequence (Q62666 1-530): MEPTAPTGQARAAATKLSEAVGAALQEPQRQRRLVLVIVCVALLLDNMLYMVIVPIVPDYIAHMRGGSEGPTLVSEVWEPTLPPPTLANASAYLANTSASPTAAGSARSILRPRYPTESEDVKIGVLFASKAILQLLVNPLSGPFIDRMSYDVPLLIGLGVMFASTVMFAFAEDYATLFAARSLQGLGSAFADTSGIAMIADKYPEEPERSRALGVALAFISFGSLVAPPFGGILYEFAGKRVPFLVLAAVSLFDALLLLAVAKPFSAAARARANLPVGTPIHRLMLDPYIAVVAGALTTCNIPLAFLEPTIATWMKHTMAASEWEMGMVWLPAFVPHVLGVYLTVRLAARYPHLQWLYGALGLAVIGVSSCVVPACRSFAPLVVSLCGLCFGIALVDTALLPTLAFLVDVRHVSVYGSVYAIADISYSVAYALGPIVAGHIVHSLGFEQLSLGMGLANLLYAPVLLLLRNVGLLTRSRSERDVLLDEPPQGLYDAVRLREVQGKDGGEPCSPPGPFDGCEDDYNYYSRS
Put plainly: In vivo blocking study of regional brain uptake. Conditions: rats, 60 min. Here is the method: The rats were sacrificed 60 minutes after injection and their brains collected. The cortex, striatum, cerebellum, and the remainder of the brain were dissected and separated, and their weights and radioactivity measured.
(§1) The results of biodistribution study were statistically analyzed using one-way ANOVA (non-parametric) followed by a Mann Whitney test. Statistical comparisons for the in vivo blocking experiments were performed using one-way ANOVA (non-parametric), Kruskal-Wallis test, and Dunn’s Multiple Comparison test.

The target in data set [3] is T1, VAChT. Briefly: Ex vivo autoradiography of rat brain. It counts as in vivo. Particulars: 60 min post-injection. Here is the method:
Four SD rats were injected intravenously with either (-)-[^125I]OIDV or (+)-[^125I]OIDV (0.4 mL, 1.85 MBq) either alone as a control or with 0.25 μmol (+/–)-vesamicol via the tail vein. At 60 min post-injection, the rats were sacrificed by exsanguination, and perfused via the left ventricle with saline solution (50 mL) followed by 4% paraformaldehyde (pH 7.4, 0.1 M phosphate buffer, 100 mL). Whole brains were removed, frozen in embedding medium at -78°C and cut into 20 μm sections at -25°C using a cryostat microtome. The sections were apposed to an imaging plate (Fujifilm, BAS-IP SR 2025) for eight days. The imaging plates were scanned by a BAS-5000 phosphor image reader (Fujifilm). Ex vivo autoradiograhy of (-)-[^123I]OIDV(0.4 mL, 111 MBq) was performed by the same method of two [^125I]OIDV isomers.

A short description of data set [4]: In vivo biodistribution study in rats. The arrangement: species or system rat. Particulars: for Biodistribution, Blood / Biodistribution, Cerebellum / Biodistribution, Cortex / Biodistribution, Heart / Biodistribution, Kidney / Biodistribution, Liver / Biodistribution, Lung / Biodistribution, Pancreas / Biodistribution, Rest brain / Biodistribution, Small intestine / Biodistribution, Spleen / Biodistribution, Stomach / Biodistribution, Striatum: n = 4, mean ± SD. On the procedure:
Three groups of male Sprague-Dawley (SD) rats (n = 4 in each group), weighing 250–300 g, were anesthetized with ether and given an intravenous (i.v.) injection of (-)-[^125I]OIDV or (+)-[^125I]OIDV (0.4 mL, 185 kBq). At 2, 30, and 60 min post-injection, the animals were sacrificed by decapitation under ether anesthesia. The organs of interest were dissected, weighed, and the radioactivity levels were measured in a gamma scintillation counter (AccuFLEX γ7010, Aloka, Tokyo). The degree of accumulation of radiotracer was expressed as a percentage of the injected dose per gram of tissue (% ID/g).
as §1

The target in another data set is T2, σ-2 receptor (Rattus norvegicus, UniProt Q5U3Y7).
T2 construct: Rat liver preparations (about 100 μg protein) were incubated in quadruplicate; from tissue; host or cells: liver of male Sprague-Dawley rats
T2 sequence (Q5U3Y7 1-176): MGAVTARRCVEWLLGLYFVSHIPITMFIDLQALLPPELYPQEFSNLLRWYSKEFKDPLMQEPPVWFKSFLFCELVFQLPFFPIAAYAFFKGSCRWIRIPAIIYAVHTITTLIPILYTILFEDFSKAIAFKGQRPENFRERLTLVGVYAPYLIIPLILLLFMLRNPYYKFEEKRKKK
Briefly: σ-2 receptor competitive binding with [3H]DTG in rat liver preparations.

Data set [5] addresses T1, VAChT. Put plainly: VAChT in vitro competitive binding with (-)-[3H]vesamicol in rat brain preparations.
A further data set addresses σ-1 receptor (Rattus norvegicus, UniProt Q9R0C9). Put plainly: σ-1 receptor competitive binding with (+)-[3H]pentazocine in rat cerebrum preparations.

Sequence of σ-1 receptor (Q9R0C9 whole entry): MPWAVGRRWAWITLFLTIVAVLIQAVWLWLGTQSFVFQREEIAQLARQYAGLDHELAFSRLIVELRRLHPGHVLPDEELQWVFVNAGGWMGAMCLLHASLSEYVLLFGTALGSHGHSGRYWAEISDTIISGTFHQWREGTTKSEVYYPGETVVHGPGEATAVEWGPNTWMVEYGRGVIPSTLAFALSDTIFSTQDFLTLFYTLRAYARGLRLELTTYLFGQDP
Description for σ-1 receptor: The incubated samples were treated in the same manner as described for the VAChT binding assays, except that Whatman GF/B glass fiber filters were used.
(§2) Ki values were calculated using Graphpad Prism (GraphPad Software, Inc. San Diego, USA).
Description for σ-2 receptor: Rat brain and liver tissue preparations were prepared from dissected brains (not including the cerebellum) and livers from male Sprague-Dawley rats (250–300 g), as previously described[34].
The incubated samples were treated in the same manner as described for the σ-1 receptor binding assay.
as §2

In the case of `OC1C[C@@H]2CCCC[C@H]2CC1N1CCC(c2ccccc2[125I])CC1` (mixture of isomers) [racemic [^125I]OIDV], the “radiolabeled metabolites in the brain” value in data set [1] was “unable to observe the presence of radiolabeled metabolites in the brain”.

As to `OC1C[C@@H]2CCCC[C@H]2CC1N1CCC(c2ccccc2[125I])CC1` (single isomer, unassigned; (-)) [(-)-[^125I]OIDV], at VAChT [2] (0.25 μmol (+)-3-PPP co-injected i.v., all four brain regions), the “regional brain uptake with co-injection of (+)-3-PPP” value is recorded as 72–82 % of control. For the same compound, at VAChT [2] (0.25 μmol (+)-pentazocine co-injected i.v., all four brain regions), the “regional brain uptake with co-injection of (+)-pentazocine” value is reported as 72–82 % of control. The “regional brain uptake with co-injection of vesamicol” value at VAChT [2] (0.25 μmol (+/-)-vesamicol co-injected i.v., all four brain regions) was “approximately 25 % of control”. Besides, the “decrease in brain uptake by vesamicol” value on VAChT [2] (0.250 μmol vesamicol co-injected) was 71–73%. Moreover, the “brain accumulation by ex vivo autoradiography with co-injection of vesamicol” value on VAChT [3] (0.25 μmol vesamicol co-injected) was “remarkably decreased”. In addition, the “regional brain distribution by ex vivo autoradiography” value on VAChT [3] (tracer alone) is on record as “distributed in characteristically VAChT-rich regions”. Moreover, the “striatum distribution relative to (+)-[125I]OIDV” value in data set [4] (at 30 min and 60 min post-injection) is 1.4–1.6 times. Further, the “retention of accumulated radioactivity in brain” value in data set [4] (i.v.) is on record as “greater than 60 min”. In addition, in data set [4] (i.v., 2 min post-injection), the “Biodistribution, Blood” value came out at 0.13 ± 0.01 % ID/g; the “Biodistribution, Cerebellum” value was found to be 0.53 ± 0.04 % ID/g; the “Biodistribution, Cortex” value stood at 0.55 ± 0.10 % ID/g; the “Biodistribution, Heart” value is recorded as 2.34 ± 0.23 % ID/g. Further, in data set [4] (i.v., 2 min post-injection), the “Biodistribution, Kidney” value was determined as 2.84 ± 0.63 % ID/g; the “Biodistribution, Liver” value is 2.07 ± 0.63 % ID/g; the “Biodistribution, Lung” value amounted to 5.84 ± 0.44 % ID/g; the “Biodistribution, Pancreas” value stood at 2.66 ± 0.40 % ID/g. In data set [4] (i.v., 2 min post-injection), the “Biodistribution, Rest brain” value was 0.48 ± 0.07 % ID/g; the “Biodistribution, Small intestine” value was determined as 0.89 ± 0.12 % ID/g; the “Biodistribution, Spleen” value is reported as 0.94 ± 0.40 % ID/g; the “Biodistribution, Stomach” value was 0.18 ± 0.09 % ID/g. The “Biodistribution, Striatum” value in data set [4] (i.v., 2 min post-injection) amounted to 0.47 ± 0.10 % ID/g. For the same compound, in data set [4] (i.v., 30 min post-injection), the “Biodistribution, Blood” value was 0.05 ± 0.01 % ID/g; the “Biodistribution, Cerebellum” value turned out to be 0.55 ± 0.11 % ID/g; the “Biodistribution, Cortex” value amounted to 0.62 ± 0.10 % ID/g; the “Biodistribution, Heart” value is 0.44 ± 0.06 % ID/g. Besides, in data set [4] (i.v., 30 min post-injection), the “Biodistribution, Kidney” value is given as 2.35 ± 0.38 % ID/g; the “Biodistribution, Liver” value amounted to 2.60 ± 0.75 % ID/g; the “Biodistribution, Lung” value is recorded as 2.51 ± 0.90 % ID/g; the “Biodistribution, Pancreas” value amounted to 4.67 ± 0.58 % ID/g. Further, in data set [4] (i.v., 30 min post-injection), the “Biodistribution, Rest brain” value was found to be 0.55 ± 0.09 % ID/g; the “Biodistribution, Small intestine” value was 1.45 ± 0.50 % ID/g; the “Biodistribution, Spleen” value is 1.37 ± 0.27 % ID/g; the “Biodistribution, Stomach” value came to 0.22 ± 0.23 % ID/g. Besides, in data set [4] (i.v., 30 min post-injection), the “Biodistribution, Striatum” value was 0.63 ± 0.09 % ID/g. Moreover, in data set [4] (i.v., 60 min post-injection), the “Biodistribution, Blood” value stood at 0.04 ± 0.01 % ID/g; the “Biodistribution, Cerebellum” value was found to be 0.41 ± 0.07 % ID/g; the “Biodistribution, Cortex” value is recorded as 0.51 ± 0.06^! % ID/g; the “Biodistribution, Heart” value was 0.25 ± 0.05 % ID/g. For the same compound, in data set [4] (i.v., 60 min post-injection), the “Biodistribution, Kidney” value came out at 2.21 ± 0.17 % ID/g; the “Biodistribution, Liver” value was 2.19 ± 0.17 % ID/g; the “Biodistribution, Lung” value was determined as 1.54 ± 0.41 % ID/g; the “Biodistribution, Pancreas” value turned out to be 4.21 ± 0.20 % ID/g. Also, in data set [4] (i.v., 60 min post-injection), the “Biodistribution, Rest brain” value is 0.47 ± 0.06^+ % ID/g; the “Biodistribution, Small intestine” value was found to be 1.85 ± 0.14 % ID/g; the “Biodistribution, Spleen” value amounted to 0.91 ± 0.08 % ID/g; the “Biodistribution, Stomach” value amounted to 0.24 ± 0.22 % ID/g. For the same compound, the “Biodistribution, Striatum” value in data set [4] (i.v., 60 min post-injection) is reported as 0.50 ± 0.07^$ % ID/g. Moreover, the “time post-injection of highest accumulation in the brain” value in data set [4] (i.v., all brain regions) is 30 min.

What is called Ki is the dissociation constant of the complex between target and ligand, obtained from inhibition or displacement. Regarding `OC1CCCCC1N1CCC(c2ccccc2)CC1` (racemic) [(+/-)-vesamicol, 2-(4-phenylpiperidino) cyclohexanol, reference compound], the values for the inhibition constant Ki on σ-2 receptor and at VAChT [5] were 70 ± 16.6 nM and 23.3 ± 3.3 nM, respectively.

Consider `O[C@@H]1C[C@H]2CCCC[C@@H]2C[C@H]1N1CCC(c2ccccc2I)CC1` [(-)-OIDV], for which the Ki on σ-2 receptor (read-out: Ki σ-2) turned out to be 59.9 ± 10.6 nM; at VAChT [5] (read-out: Ki VAChT), 22.1 ± 4.3 nM; at σ-1 receptor, 168 ± 47.2 nM.

As for `O[C@H]1C[C@@H]2CCCC[C@H]2C[C@@H]1N1CCC(c2ccccc2I)CC1` [(+)-OIDV, (2S,3S,4aS,8aS)-3-(4-(2-iodophenyl)piperidin-1-yl)decahydronaphthalen-2-ol], the Ki on σ-2 receptor (read-out: Ki σ-2) worked out at 101 ± 18.8 nM; at σ-1 receptor it was 316 ± 26.3 nM.

Regarding `OC1CC2CCCCC2CC1N1CCC(c2ccccc2)CC1` (centres unmarked) [DV, decalinvesamicol], the Ki is 65.9 ± 12.1 nM at σ-2 receptor (rat liver preparations, 5 nM [3H]DTG, 1 μM (+)-pentazocine to mask σ-1, 37°C 90 min, mean ± SD, read-out: Ki σ-2); 8.6 ± 2.5 nM on VAChT [5] (rat brain preparations, (-)-[3H]vesamicol, 200 nM DTG to mask sigma receptors, 37°C 60 min, mean ± SD, read-out: Ki VAChT); 74.4 ± 12 nM at σ-1 receptor (read-out: Ki σ-1, rat cerebrum preparations, 5 nM (+)-[3H]pentazocine, 37°C 90 min, mean ± SD).
